Two molecules from US8648086B2, “5,6-bicyclic heteroaryl-containing urea compounds as kinase inhibitors” (Ascepion Pharmaceuticals, Inc., priority 2009, dated 2014) can be followed below.

In assay [1] the test system is MKN-45 human gastric cancer cells. The experiment in a line: In vivo anti-tumor efficacy, MKN-45 xenograft. The following applies: Gastric cancer MKN-45, nu/nu Balb/c mice. How it is done:
(§1) Female (nu/nu) Balb/c athymic mice at 4-6 weeks of age were injected subcutaneously (s.c.) with MDA-MB-231 human breast cancer cells, A549 human non-small cell lung cancer cells, U87-MG human glioblastoma cells, PC-3 human prostate cancer cells, HT-29 human colon cancer, BEL-7404 human hepatocellular carcinoma, or MKN-45 human gastric cancer cells (ATCC, 5×10^6 cells suspended in 100 μl DMEM medium). Treatment was initiated after the tumor mass grown from s.c. implanted tumor cells reached a median volume of 200-400 mm^3. Mice were randomized into groups with three in each group for small-sample efficacy tests such that the median tumor volume is nearly equal among all groups. For large-sample efficacy tests, mice were randomized into groups with thirteen or fourteen in each group. Each group was treated either with compounds (dissolved in 2:1 mixture of PEG400 and 0.01N HCl (v/v)) or without compounds (vehicle only, 2:1 mixture of PEG400 and 0.01N HCl (v/v)) once per day at dose 12.5, 25, 50 or 100 mg/kg by oral gavage. Tumor volumes were assessed at least twice weekly by caliper measurement from the start of treatment. Tumor volume was calculated using the formula ½×L×W^2 (L: length of tumor's long axis, W: length of tumor's short axis). Treatment was applied for at least two weeks or until the tumor volume reaches a size of ˜2500 mm^3 or greater. Mice were humanly sacrificed after the experiment. The efficacy of compounds in reducing tumor growth was assessed by the index Tumor Growth Inhibition (TGI). TGI for a given treatment period was calculated using the group mean tumor volumes according to the formula: TGI=100×(VVehicle—group−VTreatment—group)÷VVehicle—group wherein VVehicle—group represents the mean tumor volume for the group treated with vehicle and VTreatment—group represents the mean tumor volume of the group treated with a compound.

In assay [2] the test system is MDA-MB-231 human breast cancer cells. The assay can be described thus: In vivo anti-tumor efficacy, MDA-MB-231 xenograft. The note with it: Breast cancer MDA-MB-231, nu/nu Balb/c mice. How it is done: as §1, with “experiment.” for “experiment. The efficacy of compounds in reducing tumor growth was assessed by the index Tumor Growth Inhibition (TGI). TGI for a given treatment period was calculated using the group mean tumor volumes according to the formula: TGI=100×(VVehicle—group−VTreatment—group)÷VVehicle—group wherein VVehicle—group represents the mean tumor volume for the group treated with vehicle and VTreatment—group represents the mean tumor volume of the group treated with a compound.”
The efficacy of compounds in reducing tumor growth was assessed by the index Tumor Growth Inhibition (TGI). TGI for a given treatment period was calculated using the group mean tumor volumes according to the formula: TGI=100×(VVehicle—group−VTreatment—group)÷VVehicle—group wherein VVehicle—group represents the mean tumor volume for the group treated with vehicle and VTreatment—group represents the mean tumor volume of the group treated with a compound.

Another assay addresses T1, VEGFR2 (Homo sapiens, UniProt P35968).
T1 construct: expressed in transfected cells; host or cells: CHO cells, pcDNA3.1 plasmid
The experiment in a line: VEGFR2 cell-based assay (phospho-VEGFR2 ELISA, transfected CHO cells). The following applies: compound at 100 nM, read-out: % VEGFR2 kinase activity remains. A digest of the protocol: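 Serum-starved CHO cells transfected with full-length VEGFR2 treated 2 h with compound (0.5–500 nM), then stimulated with 20% FBS. Lysates analyzed by ELISA for phospho- and total VEGFR2 using streptavidin-HRP chemiluminescence.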
(In an ELISA, binding on a coated surface is turned into a signal by an enzyme label.)

Another assay deals with T2, c-Met (Homo sapiens, UniProt P08581).
T2 construct: endogenous in cells; host or cells: A549 cells
The assay can be described thus: c-Met cell-based assay (phospho-c-Met ELISA, A549 cells). The note with it: compound at 100 nM. The method, boiled down: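 Serum-starved A549 cells (NSCLC) pretreated 2 h with compound (0.5 nM to 500 nM), then stimulated 20 min with 20% FBS. Lysates analysed by ELISA for phospho-c-Met and total c-Met with streptavidin-HRP chemiluminescence.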

The mark [3] stands for this setting: 50 mg/kg oral once per day, n = 2 × 3.

T2 sequence (P08581 25-1390): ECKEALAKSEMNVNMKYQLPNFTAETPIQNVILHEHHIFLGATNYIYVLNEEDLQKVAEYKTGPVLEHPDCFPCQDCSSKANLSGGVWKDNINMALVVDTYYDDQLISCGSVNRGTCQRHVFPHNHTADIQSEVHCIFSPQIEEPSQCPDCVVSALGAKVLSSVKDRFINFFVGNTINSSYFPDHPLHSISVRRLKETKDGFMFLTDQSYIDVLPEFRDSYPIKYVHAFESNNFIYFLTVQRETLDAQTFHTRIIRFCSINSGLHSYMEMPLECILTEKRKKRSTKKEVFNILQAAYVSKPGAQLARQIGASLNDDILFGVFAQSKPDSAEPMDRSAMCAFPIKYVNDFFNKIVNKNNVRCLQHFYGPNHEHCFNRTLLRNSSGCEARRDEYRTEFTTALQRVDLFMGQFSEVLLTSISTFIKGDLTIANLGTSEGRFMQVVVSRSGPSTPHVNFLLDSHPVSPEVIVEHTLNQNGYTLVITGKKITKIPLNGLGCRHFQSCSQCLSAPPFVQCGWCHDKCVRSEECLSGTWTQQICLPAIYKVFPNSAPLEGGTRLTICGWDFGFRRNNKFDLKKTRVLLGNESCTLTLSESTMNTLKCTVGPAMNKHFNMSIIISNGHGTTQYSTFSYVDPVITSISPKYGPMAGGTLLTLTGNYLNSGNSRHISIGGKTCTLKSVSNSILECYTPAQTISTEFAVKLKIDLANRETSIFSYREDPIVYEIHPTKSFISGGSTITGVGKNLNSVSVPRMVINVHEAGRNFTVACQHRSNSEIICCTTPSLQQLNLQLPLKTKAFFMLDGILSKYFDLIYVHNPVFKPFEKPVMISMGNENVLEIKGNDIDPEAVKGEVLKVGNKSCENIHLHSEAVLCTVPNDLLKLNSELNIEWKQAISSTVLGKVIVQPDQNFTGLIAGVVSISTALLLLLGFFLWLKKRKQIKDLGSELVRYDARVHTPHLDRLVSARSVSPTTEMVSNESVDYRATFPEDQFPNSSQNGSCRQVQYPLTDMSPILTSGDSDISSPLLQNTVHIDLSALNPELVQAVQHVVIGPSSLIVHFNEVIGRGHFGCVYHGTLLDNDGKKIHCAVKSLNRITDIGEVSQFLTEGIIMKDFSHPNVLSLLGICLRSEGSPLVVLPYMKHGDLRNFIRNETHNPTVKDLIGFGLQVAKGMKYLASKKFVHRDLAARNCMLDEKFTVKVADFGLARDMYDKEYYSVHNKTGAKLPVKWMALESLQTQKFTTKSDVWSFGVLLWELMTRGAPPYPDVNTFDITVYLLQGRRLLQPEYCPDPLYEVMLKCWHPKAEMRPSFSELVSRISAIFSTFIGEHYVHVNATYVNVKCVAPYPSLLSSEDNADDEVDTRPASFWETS
T1 sequence (P35968 20-1356, species assumed): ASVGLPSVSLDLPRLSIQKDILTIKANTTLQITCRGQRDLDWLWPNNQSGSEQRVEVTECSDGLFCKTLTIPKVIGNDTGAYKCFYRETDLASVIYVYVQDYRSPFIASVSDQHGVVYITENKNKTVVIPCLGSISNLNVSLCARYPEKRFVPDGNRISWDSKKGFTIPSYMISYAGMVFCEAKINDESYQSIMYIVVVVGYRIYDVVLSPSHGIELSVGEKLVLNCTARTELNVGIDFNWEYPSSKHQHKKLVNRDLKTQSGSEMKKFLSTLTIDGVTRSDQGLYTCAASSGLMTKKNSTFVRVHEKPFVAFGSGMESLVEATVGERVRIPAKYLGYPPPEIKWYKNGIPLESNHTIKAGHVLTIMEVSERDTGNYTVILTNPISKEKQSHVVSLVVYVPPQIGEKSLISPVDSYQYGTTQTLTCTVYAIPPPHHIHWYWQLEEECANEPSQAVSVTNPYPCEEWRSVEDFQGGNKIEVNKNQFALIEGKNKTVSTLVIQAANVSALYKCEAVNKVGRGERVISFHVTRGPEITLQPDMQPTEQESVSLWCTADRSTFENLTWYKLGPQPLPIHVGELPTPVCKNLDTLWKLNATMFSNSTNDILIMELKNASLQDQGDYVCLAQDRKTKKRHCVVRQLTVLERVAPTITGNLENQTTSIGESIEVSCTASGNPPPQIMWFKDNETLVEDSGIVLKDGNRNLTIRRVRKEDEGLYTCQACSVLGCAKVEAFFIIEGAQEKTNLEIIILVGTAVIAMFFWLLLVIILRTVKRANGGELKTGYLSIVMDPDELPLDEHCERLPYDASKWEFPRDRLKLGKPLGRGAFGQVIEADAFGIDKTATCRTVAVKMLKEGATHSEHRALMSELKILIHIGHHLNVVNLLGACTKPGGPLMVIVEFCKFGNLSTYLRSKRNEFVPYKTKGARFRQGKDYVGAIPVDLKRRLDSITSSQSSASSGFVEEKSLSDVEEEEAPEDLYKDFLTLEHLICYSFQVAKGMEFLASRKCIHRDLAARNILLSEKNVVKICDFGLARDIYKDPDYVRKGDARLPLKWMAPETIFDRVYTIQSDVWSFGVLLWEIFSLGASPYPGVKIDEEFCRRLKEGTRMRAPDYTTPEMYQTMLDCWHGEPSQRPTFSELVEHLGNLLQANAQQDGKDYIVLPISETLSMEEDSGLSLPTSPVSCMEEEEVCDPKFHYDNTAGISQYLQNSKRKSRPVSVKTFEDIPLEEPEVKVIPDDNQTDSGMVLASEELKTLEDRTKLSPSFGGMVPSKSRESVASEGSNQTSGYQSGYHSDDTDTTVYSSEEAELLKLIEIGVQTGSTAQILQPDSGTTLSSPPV

Consider `Cl.O=C(Nc1cccc(C(F)(F)F)c1)Nc1cccc2c1ccn2Cc1ccnc2[nH]ccc12` [Example 51, 1-(3-Trifluoromethylphenyl)-3-[1-(1H-pyrrolo[2,3-b]pyridin-4-ylmethyl)-1H-indol-4-yl]urea hydrochloride], for which the “Tumor Growth Inhibition (TGI)” value in assay [1] (setting [3]) and in assay [2] (setting [3]) was “A (the TGI is greater or equal to 50%)” throughout. Besides, the remaining activity at 0.1 µM on VEGFR2 is less than 70%. For the same molecule, the “% c-Met kinase activity remains” value on c-Met is on record as “B (the percentage is greater or equal to 70%)”.

Regarding `Cl.O=C(Nc1cc(Cl)ccc1F)Nc1cccc2c1ccn2Cc1ccnc2[nH]ccc12` [Example 56, 1-(2-Fluoro-5-chlorophenyl)-3-[1-(1H-pyrrolo[2,3-b]pyridin-4-ylmethyl)-1H-indol-4-yl]urea hydrochloride], the “Tumor Growth Inhibition (TGI)” value in assay [1] (12.5 mg/kg oral once per day, n = 6 × 13) was “B (the TGI for the compound of this invention is between 0% and 50%)”; in assay [1] (25 mg/kg oral once per day, n = 6 × 13), “A (the TGI is greater or equal to 50%)”; in assay [1] (50 mg/kg oral once per day, n = 3 × 3), “A (the TGI is greater or equal to 50%)”; in assay [1] (50 mg/kg oral once per day, n = 6 × 13), “A (the TGI is greater or equal to 50%)”; in assay [1] (100 mg/kg oral once per day, n = 6 × 13), “A (the TGI is greater or equal to 50%)”; in assay [2] (12.5 mg/kg oral once per day, n = 6 × 14), “A (the TGI is greater or equal to 50%)”. Further, the “Tumor Growth Inhibition (TGI)” value in assay [2] (25 mg/kg oral once per day, n = 6 × 14) is recorded as “A (the TGI is greater or equal to 50%)”; in assay [2] (setting [3]), “A (the TGI is greater or equal to 50%)”; in assay [2] (50 mg/kg oral once per day, n = 6 × 14) it was “A (the TGI is greater or equal to 50%)”; in assay [2] (100 mg/kg oral once per day, n = 6 × 14), “A (the TGI is greater or equal to 50%)”. For the same molecule, the remaining activity at 0.1 µM at VEGFR2 was no less than 70%. Besides, the “% c-Met kinase activity remains” value at c-Met is listed as “A (the percentage of kinase activity remains is below 70%)”.
